The values that follow come from US8575158B2, “1-phenyl-substituted heterocyclyl derivatives and their use as prostaglandin D2 receptor modulators” (Actelion Pharmaceuticals Ltd., priority 2010, dated 2013).

The assay addresses T1, hCRTH2 receptor (Homo sapiens, UniProt Q9Y5Y4).
T1 construct: expressed in transfected cells; host or cells: HEK293
T1 sequence (Q9Y5Y4 1-395): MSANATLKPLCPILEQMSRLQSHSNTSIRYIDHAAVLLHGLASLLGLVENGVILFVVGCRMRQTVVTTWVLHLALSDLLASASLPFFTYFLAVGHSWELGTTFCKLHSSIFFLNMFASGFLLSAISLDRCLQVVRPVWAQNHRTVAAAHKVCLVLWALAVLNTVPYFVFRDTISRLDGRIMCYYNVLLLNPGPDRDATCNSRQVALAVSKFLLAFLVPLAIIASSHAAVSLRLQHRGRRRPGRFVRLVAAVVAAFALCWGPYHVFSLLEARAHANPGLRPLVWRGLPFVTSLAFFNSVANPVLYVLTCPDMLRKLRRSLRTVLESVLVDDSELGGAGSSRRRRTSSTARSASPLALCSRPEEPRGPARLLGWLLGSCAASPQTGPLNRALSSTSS
Description: Radioligand displacement assay (3H-PGD2) on hCRTH2 receptor membranes. Particulars: antagonistic activity. The class given is binding. The procedure: First, recombinant HEK293-hCRTH2 cells were detached from culture plates into 5 ml buffer A/plate (Buffer A: 5 mM Tris, 1 mM MgCl2-6H2O pH=7.4) using a rubber policeman. Cells were then transferred into centrifugation tubes and centrifuged for 5 min at 400 g. The cell pellet was resuspended in the same buffer and tubes were frozen at −80° C. Cells were thawed and membrane fragments were generated by homogenization using a polytron homogenizer (30 seconds). The membrane fragments were then centrifuged at 3000 g for 20 minutes and resuspended in buffer C (Buffer C: 75 mM Tris, 25 mM MgCl2, 250 mM Saccharose pH 7.4). Aliquots of membrane fragments were stored at −20° C.
Binding assay was performed in a final assay volume of 250 μl. First, 25 μl of test compound, previously diluted in Binding-Buffer (Binding-Buffer: 50 mM Tris-Base, 100 mM NaCl, 1 mM EDTA, 0.1% BSA (protease free), 0.01% NaN3, 10 mM MnCl2, pH 7.0) was placed into each well. After addition of 75 μl Binding-Buffer, 50 μl of the radioligand ^3H-PGD2 (at 2.5 nM (220.000 dpm/well) from ANAWA ART0662) was added to each well. Binding assay was started by addition of 100 μl CRTH2 membrane fragments, reaching a final concentration of 20 μg/well. For non-specific binding, PGD2 was added to the reaction mixture to […] final concentration.
This assay mix was incubated for 90 minutes at room temperature and then filtered through a GF/C filter 96-well plate which was pre-soaked for 3 hours in 0.5% polyethyleneimine (PEI). The filter-wells were washed three times with ice cold Binding-Buffer. Then, 40 μl of Microscint-40 (Packard) was added to each well and the retained radioactivity quantified in a Topcount (Packard).
Background: Displacement assays read how much labelled ligand stays bound in the presence of the test substance.

[1] abbreviates: 3H-PGD2 displacement on HEK293-hCRTH2 membrane fragments.

The structures appear in SMILES notation.

In the case of `O=C(O)COc1ccc(Cl)cc1C1c2ccc(F)cc2CCN1C(=O)C1CC1c1ccccc1Cl` (mixture of isomers) [Example 430, (±)-(4-Chloro-2-{2-[2-(trans-2-chloro-phenyl)-cyclopropanecarbonyl]-6-fluoro-1,2,3,4-tetrahydro-isoquinolin-1-yl}-phenoxy)-acetic acid], where the note is “3H-PGD2 radioligand displacement, HEK293-hCRTH2 membranes”, the IC50 (as a rule, the concentration that gives 50% inhibition) turned out to be 9.37 nM.

`O=C(O)COc1ccc(F)cc1C1c2ccccc2CCN1C(=O)OCc1ccccc1` (racemic) [Example 1, (±)-1-(2-Carboxymethoxy-5-fluoro-phenyl)-3,4-dihydro-1H-isoquinoline-2-carboxylic acid benzyl ester] came in with a concentration for half-maximal inhibition (IC50) under setting [1] of 7.6 nM.

`Cc1ccc(OCC(=O)O)c(C2c3ccccc3CCN2C(=O)OCc2ccccc2)c1` (racemic) [Example 3, (±)-1-(2-Carboxymethoxy-5-methyl-phenyl)-3,4-dihydro-1H-isoquinoline-2-carboxylic acid benzyl ester] yielded an IC50 under setting [1] of 62.7 nM.

Molecule `O=C(O)COc1ccc(Br)cc1C1c2ccccc2CCN1C(=O)OCc1ccccc1` (racemic) [Example 4, (±)-1-(5-Bromo-2-carboxymethoxy-phenyl)-3,4-dihydro-1H-isoquinoline-2-carboxylic acid benzyl ester] showed a 50% inhibitory concentration (IC50) under setting [1] of 10.5 nM.

Take `O=C(O)COc1ccc(F)cc1C1c2cc(Br)ccc2CCN1C(=O)OCc1ccccc1` (racemic) [Example 5, (±)-7-Bromo-1-(2-carboxymethoxy-5-fluoro-phenyl)-3,4-dihydro-1H-isoquinoline-2-carboxylic acid benzyl ester]: the IC50 under setting [1] stood at 81.2 nM.

Regarding `O=C(O)COc1cc(F)c(F)cc1C1c2ccccc2CCN1C(=O)OCc1ccccc1` (racemic) [Example 6, (±)-1-(2-Carboxymethoxy-4,5-difluoro-phenyl)-3,4-dihydro-1H-isoquinoline-2-carboxylic acid benzyl ester], the IC50 under setting [1] turned out to be 30.1 nM.

Molecule `O=C(O)COc1ccc(F)cc1C1c2cccc(Br)c2CCN1C(=O)OCc1ccccc1` (racemic) [Example 7, (±)-5-Bromo-1-(2-carboxymethoxy-5-fluoro-phenyl)-3,4-dihydro-1H-isoquinoline-2-carboxylic acid benzyl ester] had an IC50 under setting [1] of 7.9 nM.

Under setting [1], `O=C(O)COc1ccc(F)cc1C1c2cc(F)c(F)cc2CCN1C(=O)OCc1ccccc1` (racemic) [Example 9, (±)-1-(2-Carboxymethoxy-5-fluoro-phenyl)-6,7-difluoro-3,4-dihydro-1H-isoquinoline-2-carboxylic acid benzyl ester] showed an IC50 of 35.5 nM.

As to `O=C(O)COc1ccc(Br)cc1C1c2cc(F)c(F)cc2CCN1C(=O)OCc1ccccc1` (racemic) [Example 10, (±)-1-(5-Bromo-2-carboxymethoxy-phenyl)-6,7-difluoro-3,4-dihydro-1H-isoquinoline-2-carboxylic acid benzyl ester], under setting [1], the IC50 came out at 74 nM.

On to `N#Cc1ccc(OCC(=O)O)c(C2c3cc(F)c(F)cc3CCN2C(=O)OCc2ccccc2)c1` (racemic) [Example 11, (±)-1-(2-Carboxymethoxy-5-cyano-phenyl)-6,7-difluoro-3,4-dihydro-1H-isoquinoline-2-carboxylic acid benzyl ester], for which the 50% inhibitory concentration (IC50) under setting [1] is 13.3 nM.

For `O=C(O)COc1ccc(F)cc1C1c2cccc(C(F)(F)F)c2CCN1C(=O)OCc1ccccc1` (racemic) [Example 12, (±)-1-(2-Carboxymethoxy-5-fluoro-phenyl)-5-trifluoromethyl-3,4-dihydro-1H-isoquinoline-2-carboxylic acid benzyl ester], the IC50 under setting [1] worked out at 4.59 nM.

In turn, `O=C(O)COc1ccc(F)cc1C1c2ccc(F)c(F)c2CCN1C(=O)OCc1ccccc1` (racemic) [Example 14, (±)-1-(2-Carboxymethoxy-5-fluoro-phenyl)-5,6-difluoro-3,4-dihydro-1H-isoquinoline-2-carboxylic acid benzyl ester] registered an IC50 under setting [1] of 18.8 nM.

For `O=C(O)COc1ccc(Cl)cc1C1c2ccc(F)c(F)c2CCN1C(=O)OCc1ccccc1` (racemic) [Example 15, (±)-1-(2-Carboxymethoxy-5-chloro-phenyl)-5,6-difluoro-3,4-dihydro-1H-isoquinoline-2-carboxylic acid benzyl ester], the IC50 under setting [1] turned out to be 10.1 nM.

Molecule `N#Cc1ccc(OCC(=O)O)c(C2c3ccc(F)c(F)c3CCN2C(=O)OCc2ccccc2)c1` (racemic) [Example 16, (±)-1-(2-Carboxymethoxy-5-cyano-phenyl)-5,6-difluoro-3,4-dihydro-1H-isoquinoline-2-carboxylic acid benzyl ester] came in with an IC50 under setting [1] of 4.34 nM.

Under setting [1], `CN(C)S(=O)(=O)c1ccc(OCC(=O)O)c(C2c3ccccc3CCN2C(=O)OCc2ccccc2)c1` (racemic) [Example 17, (±)-1-(2-Carboxymethoxy-5-dimethylsulfamoyl-phenyl)-3,4-dihydro-1H-isoquinoline-2-carboxylic acid benzyl ester] showed an IC50 of 889 nM.

Molecule `O=C(O)COc1ccc(Cl)cc1C1c2cccc(F)c2CCN1C(=O)OCc1ccccc1` (racemic) [Example 18, (±)-1-(2-Carboxymethoxy-5-chloro-phenyl)-5-fluoro-3,4-dihydro-1H-isoquinoline-2-carboxylic acid benzyl ester] displayed a 50% inhibitory concentration (IC50) under setting [1] of 5.43 nM.

In turn, `N#Cc1ccc(OCC(=O)O)c(C2c3cccc(F)c3CCN2C(=O)OCc2ccccc2)c1` (racemic) [Example 19, (±)-1-(2-Carboxymethoxy-5-cyano-phenyl)-5-fluoro-3,4-dihydro-1H-isoquinoline-2-carboxylic acid benzyl ester] had an IC50 under setting [1] of 9.38 nM.

For the molecule `O=C(O)COc1ccc(C(F)(F)F)cc1C1c2ccccc2CCN1C(=O)OCc1ccccc1` (racemic) [Example 20, (±)-1-(2-Carboxymethoxy-5-trifluoromethyl-phenyl)-3,4-dihydro-1H-isoquinoline-2-carboxylic acid benzyl ester], the IC50 under setting [1] was 50.7 nM.

`O=C(O)COc1ccc(Cl)cc1C1c2ccccc2CCN1C(=O)OCc1ccccc1` (racemic) [Example 21, (±)-1-(2-Carboxymethoxy-5-chloro-phenyl)-3,4-dihydro-1H-isoquinoline-2-carboxylic acid benzyl ester] returned an IC50 under setting [1] of 6.87 nM.

For the molecule `CC(C)c1ccc(OCC(=O)O)c(C2c3ccccc3CCN2C(=O)OCc2ccccc2)c1` (racemic) [Example 22, (±)-1-(2-Carboxymethoxy-5-isopropyl-phenyl)-3,4-dihydro-1H-isoquinoline-2-carboxylic acid benzyl ester], the IC50 under setting [1] was 483 nM.

For the molecule `O=C(O)COc1cc2c(cc1C1c3ccccc3CCN1C(=O)OCc1ccccc1)OCO2` (racemic) [Example 23, (±)-1-(6-Carboxymethoxy-benzo[1,3]dioxol-5-yl)-3,4-dihydro-1H-isoquinoline-2-carboxylic acid benzyl ester], under setting [1], the IC50 was 227 nM.

In turn, `COc1ccc(OCC(=O)O)c(C2c3ccccc3CCN2C(=O)OCc2ccccc2)c1` (racemic) [Example 24, (±)-1-(2-Carboxymethoxy-5-methoxy-phenyl)-3,4-dihydro-1H-isoquinoline-2-carboxylic acid benzyl ester] had an IC50 under setting [1] of 83.7 nM.

With `O=C(O)COc1c(F)cc(F)cc1C1c2ccccc2CCN1C(=O)OCc1ccccc1` (racemic) [Example 33, (±)-1-(2-Carboxymethoxy-3,5-difluoro-phenyl)-3,4-dihydro-1H-isoquinoline-2-carboxylic acid benzyl ester], the IC50 under setting [1] came to 196 nM.

In turn, `O=C(O)COc1ccc(F)cc1C1c2cccc(F)c2CCN1C(=O)OCc1ccccc1` (racemic) [Example 34, (±)-1-(2-Carboxymethoxy-5-fluoro-phenyl)-5-fluoro-3,4-dihydro-1H-isoquinoline-2-carboxylic acid benzyl ester] showed a half-maximal inhibitory concentration (IC50) under setting [1] of 7.22 nM.

`COc1cccc2c1CCN(C(=O)OCc1ccccc1)C2c1cc(F)ccc1OCC(=O)O` (racemic) [Example 35, (±)-1-(2-Carboxymethoxy-5-fluoro-phenyl)-5-methoxy-3,4-dihydro-1H-isoquinoline-2-carboxylic acid benzyl ester] had an IC50 under setting [1] of 19.7 nM.

`COc1cc2c(cc1OC)C(c1cc(F)ccc1OCC(=O)O)N(C(=O)OCc1ccccc1)CC2` (racemic) [Example 36, (±)-1-(2-Carboxymethoxy-5-fluoro-phenyl)-6,7-dimethoxy-3,4-dihydro-1H-isoquinoline-2-carboxylic acid benzyl ester] returned an IC50 under setting [1] of 57.1 nM.
